Key:
A-SMase [1] = test: Western blot of A-SMase protein after antisense knockdown in primary human neurons; assay type: cell-based; conditions: 48 h with oligonucleotide
Procedure: Because these ASOs have become a very critical part of our study, the efficacy of N-SMase and A-SMase ASOs in inhibiting the protein expression of N-SMase and A-SMase was checked by western blot. […] Next, the effect of antisense knockdown of neuronal N-SMase and/or A-SMase on activated glia-induced neuronal apoptosis by TUNEL was investigated. […] As evidenced by a decrease In MTT metabolism, activated astroglia reduced neuronal viability (FIG. 2E).
Primary human neurons were incubated with antisense (ASO) and scrambled oligonucleotides (ScO) against N-SMase (A) and A-SMase (FIG. 2B). After 48 h, neurons were analyzed for protein expression of N-SMase and A-SMase. In FIG. 2C, primary human astrocytes seeded in inserts were stimulated by the combination of Aβ and IL-1β as described above. […] After 6 h of treatment with activated astrocytes, apoptotic events in neurons were detected by TUNEL. In FIG. 2D, TUNEL-positive cells were counted manually in four different images of each of three coverslips by three individuals blinded to the experiment. In FIG. 2E, after 18 h of stimulation, cell viability was examined by the metabolism of MTT and the release of LDH. […] Cell viability was checked by MTT (FIG. 2F) and LDH (FIG. 2G). Values obtained from the control group served as 100%, and data obtained in other groups were calculated as percent of control accordingly. […]

primary human neurons = test: TUNEL apoptosis of neurons challenged by (fibrillar Aβ+IL-1β)-activated astrocytes, astrocyte-neuron trans-well; assay type: cell-based; conditions: neurons pretreated 40 h with 1 μM oligonucleotide; 6 h with (fibrillar Aβ+IL-1β)-activated astrocytes
Procedure: Primary human astrocytes were grown to confluency on inserts. After 24 h of stimulation by the combination of Aβ (1 μM) and IL-Iβ (10 ng/ml), inserts were washed thrice with HBSS and then placed onto the wells containing primary human neurons. Therefore, in this trans-well model, although neurons and astrocytes face each other, they are separable and the effect of soluble factors released from activated astrocytes on neurons can be studied allowing analysis of neuronal and glial populations separately.
Fragmented DNA was detected in situ by the terminal deoxynucleotidyltransferase-mediated binding of 3′-OH ends of DNA fragments generated in response to fibrillar Aβ1-42, using a commercially available kit (TdT FragEL™) from Calbiochem. […]
Primary human neurons were incubated with antisense (ASO) and scrambled oligonucleotides (ScO) against N-SMase (A) and A-SMase (FIG. 2B). After 48 h, neurons were analyzed for protein expression of N-SMase and A-SMase. […] After 6 h of treatment with activated astrocytes, apoptotic events in neurons were detected by TUNEL. In FIG. 2D, TUNEL-positive cells were counted manually in four different images of each of three coverslips by three individuals blinded to the experiment. […] Values obtained from the control group served as 100%, and data obtained in other groups were calculated as percent of control accordingly. […]

ceramide = test: Ceramide level in vivo in the cortex (DAG kinase assay); set-up: species or system C57/BL6 mice
Procedure: After treatment, lipids were extracted from cells as described previously. Ceramide content was quantified using diacylglycerol (DAG) kinase and [γ-^32P] ATP as described earlier. Briefly, dried lipids were solubilized in 20 μl of an octyl β-D-glucoside/cardiolipin solution (7.5% octyl β-D-glucoside, 5 mM cardiolipin in 1 mM diethylenetriaminepentaacetic acid) by sonication in a sonicatorbath. The reaction was then carried out in a final volume of 100 μl containing the 20-μl sample solution, 50 mM imidazole HQ, pH 6.6, 50 mM NaCl, 12.5 mM MgCl2, 1 mM EGTA, 2 mM dithiothreitol, 6.6 μg of DAG kinase, and 1 mM [γ-^32P] ATP (specific activity of 1-5×10^5 cpm/nmol) for 30 min at room temperature. The labeled ceramide-1-phosphate was resolved with a solvent system consisting of methyl acetate:n-propyl alcohol:chloroform:methanol:0.25% KQ in water:acetic acid (100:100:100:40:36:2). […] Quantification of ceramide-1-phosphate was carried out by autoradiography and densitometry scanning using a Fluor Chem 8800 imaging system (Alpha Innotech Corporation). Values are expressed either as arbitrary units (absorbance) or as percent of control, considering control as 100%. […]
Control mice received saline injection. […] Control (saline—6 h) group served as 100%, and data from other groups were expressed as percentage of control. […]

iNOS, GFAP and CD11b = test: Immunofluorescence of iNOS, GFAP and CD11b in the cortex of Aβ-microinjected mice; assay type: in vivo, C57/BL6 mice; conditions: cortex, 6 h (and 24 h) of microinjection
Procedure: […], mice were perfused with 4% paraformaldehyde and their brains were processed for immunohistochemical studies. For double labeling of GFAP with iNOS, sections (6 μm) were incubated with polyclonal anti-GFAP (GFAP: 1000 dilution; Calbiochem) and anti-iNOS (iNOS: 1000 dilution; Calbiochem) for 24 h at 4° C. After three washes in PBST (15 min each), slides were further incubated with Cy5 and Cy2 (Jackson ImmunoResearch Laboratories, Inc.) secondary antibodies for 2 h at room temperature. For negative controls, a set of tissue sections was incubated under similar conditions without the primary antibodies. The samples were mounted and observed under a Bio-Rad MRC1024ES confocal laser scanning microscope.
After 6 h of Aβ microinjection, mice were perfused and double immunofluorescence for GFAP (green) and iNOS (red) (FIG. 8A) and CD 11b (green) and iNOS (red) (FIG. 8B) was performed.

N-SMase = N-SMase activity in vivo in the cortex after microinjection; set-up: species or system C57/BL6 mice
Procedure: (§1) Activities of SMase(s) were assayed as described by. Briefly, after treatment, the cells were washed with PBS, harvested in PBS, divided into two halves, and centrifuged. The fraction for N-SMase was resuspended in buffer A (100 mM Tris-HCl, pH 7.4, 0.1% Triton X-100, 1 mM EDTA, and protease inhibitors), and the cell suspension was sonicated and centrifuged at 500×g at 4° C. for 5 min. The supernatant was used as the enzyme source for N-SMase. The reaction mixture contained enzyme preparation in buffer A containing 5 nmol of [^14C] sphingomyelin, 5 nmol of phosphatidylserine, 5 mM dithiothreitol, and 5 mM MgC¾ in a final volume of 100 μl. Similarly, the fraction for A-SMase was resuspended in buffer B (100 mM sodium acetate, pH 5.0, 0.1% Triton X-100, and protease inhibitors). The cell suspension was sonicated and centrifuged. The supernatant was used as the source of A-SMase. The activity of A-SMase was measured in a 100-μl reaction mixture consisting of the enzyme preparation in buffer B and 5 nmol of [^14C] sphingomyelin. The enzyme reaction was initiated by the addition of 50 μl of substrate and stopped by the addition of 1.5 ml of chloroform:methanol (2:1, v/v) and 0.2 ml of water. After vortexing and phase separation, the aqueous phase was removed for counting.
(§2) Control mice received saline injection. At indicated time points, cortex was dissected out and divided into two halves—one half for measuring activities of N-SMase (FIG. 7B) and A-SMase (FIG. 7C) and the other for assaying ceramide (FIG. 7D). Control (saline—6 h) group served as 100%, and data from other groups were expressed as percentage of control. Results are mean+SD of five different mice (n=5). ^ap<0.05 vs saline—6 h.

[2] = tested on: neurons (NeuN-positive cells); test: TUNEL/NeuN neuronal apoptosis in vivo in the cortex of Aβ-microinjected mice
primary human astrocytes = test: GFAP and iNOS double-labeling of primary human astrocytes stimulated with Aβ peptides; assay type: cell-based; conditions: peptide stimulation for 24 h
Procedure: In FIG. 5A, primary astrocytes were stimulated with fibrillar Aβ1-42, oligomeric Aβ1-42 and reverse peptide Aβ42-1 for 24 h followed by double-labeling of GFAP and iNOS. In FIG. 5B, primary human astrocytes seeded in inserts were stimulated with a combination of I μM of oligomeric Aβ1-42 and 10 ng/ml of IL-Iβ in serum free media. […] After 6 h, neuronal apoptosis was monitored by TUNEL. In FIG. 5C, TUNEL-positive cells were counted manually in four different images of each of three coverslips by three individuals blinded to the experiment. Values obtained from the control group (1) served as 100%, and data obtained from other three groups i.e. the oligomeric Aβ-activated astrocytes (OAA) group (2), the ASO-OAA group (3), and the ScO-OAA group (4) was calculated as percent of control accordingly. Results are mean+S.D. of three different experiments. ^ap<0.001 vs control; ^bp<0.001 vs OAA.

A-SMase [3] = test: A-SMase activity in vivo in the cortex after microinjection; set-up: species or system C57/BL6 mice
Procedure: as §1, §2

primary human astroglia = test: NO synthesis (nitrite, Griess reagent) in primary human astroglia; assay type: cell-based; conditions: primary human astroglia, level comparable to IL-1β
Procedure: Synthesis of NO was determined by assay of culture supernatants for nitrite, a stable reaction product of NO with molecular oxygen, using Griess reagent as described.
After 24 h of stimulation, the concentration of nitrite was measured in supernatants (FIG. 4A) by Griess reagent. […] Cells were treated with ASO/ScO for 40 h followed by stimulation with the combination of fibrillar Aβ and IL-Iβ as above. After 6 h, the expression of iNOS mRNA was analyzed by both semi-quantitative RT-PCR (C) and quantitative real-time PCR (FIG. 4D). The expression of TNF-a, IL-6 and IL-Iβ mRNAs were analyzed by semi-quantitative RT-PCR (FIG. 4E). Results are mean±SD of three different experiments. ^ap<0.001 vs control; ^bp<0.001 vs (Aβ+IL-Iβ).

Row | Substance | level of A-SMase protein (A-SMase [1]) | protection of neurons from activated astrocyte-induced apoptosis (TUNEL) (primary human neurons) | increase in the ceramide level in the cortex (ceramide; after 6 h) | increase in the ceramide level in the cortex (ceramide; after 12 h) | glial expression of iNOS (GFAP-positive astrocytes, CD11b-positive microglia) and GFAP after Aβ microinjection (iNOS, GFAP and CD11b) | glial expression of iNOS (GFAP-positive astrocytes, CD11b-positive microglia) and GFAP after Aβ microinjection (iNOS, GFAP and CD11b; listed as Aβ) | activation of N-SMase in the cortex compared to saline microinjection (N-SMase; 1 μg peptide, over the time course) | increase in the activity of N-SMase in the cortex (N-SMase; 6 h of microinjection, 1 μg peptide) | activity of N-SMase in the cortex, in words (N-SMase; 12 h of microinjection) | increase in the activity of N-SMase in the cortex compared to saline (N-SMase; 12 h of microinjection, 1 μg peptide) | activity of N-SMase in the cortex, in words (N-SMase; 24 h of microinjection) | increase in the activity of N-SMase in vivo in the cortex compared to saline (N-SMase; antisense experiment, Aβ alone) | apoptotic death of neurons in vivo in the cortex after Aβ microinjection ([2]; 24 h after microinjection) | apoptosis in neurons (NeuN-positive cells) after Aβ microinjection ([2]; within 6 h of microinjection) | astroglial iNOS protein and GFAP (primary human astrocytes) | activity of A-SMase in the cortex (A-SMase [3]; 1 μg peptide microinjected, same setting as N-SMase) | increase in the activity of A-SMase after Aβ microinjection (A-SMase [3]; antisense experiment, Aβ alone) | production of NO by the stimulus alone (primary human astroglia)
1 | 5′- GACATCTCGGAGCCGGGGCA -3′ (DNA, all phosphorothioate, methylation of C not given here) [ASO against A-SMase, ID; NO.: 14] | suppressed | failed to rescue neurons |  |  |  |  |  |  |  |  |  |  |  |  |  |  |  | 
2 | fibrillar Aβ1-42: human Aβ peptide (1-42), Bachem, incubated at 50 μM at 37° C. for 5 days |  |  | about 3 fold | about 4 fold | induced | marked increase | marked increase | More than 3 fold | increased further | more than 300% | decreased | more than 4 fold | markedly induced | unable to induce any apoptosis | induced the expression of iNOS protein and increased the level of GFAP | unable to increase | about 35% | capable of inducing
